Laboratory results from ChEMBL document CHEMBL2073947, “The human multidrug resistance protein MRP4 functions as a prostaglandin efflux transporter and is inhibited by nonsteroidal antiinflammatory drugs” (Proc Natl Acad Sci U S A, 2003).

Tests used:
Set-up in all cases: scale not given: the % may be the effect or the level left
[1] = molecular target: T1, MRP5 (ATP-binding cassette sub-family C member 5) (Homo sapiens, UniProt O15440); experiment: TP_TRANSPORTER: inhibition of alaninyl-d4TMP by Prostaglandin E1 at a concentration of 20uM in membrane vesicle from MRP5-expressing HEK293 cell; type: functional, cell membranes; conditions: membrane vesicles from MRP5-expressing HEK293 cells, probe alaninyl-d4TMP, read-out: Activity
[2] = molecular target: T2, ATP-binding cassette sub-family C member 4 (Homo sapiens, UniProt O15439); experiment: TP_TRANSPORTER: inhibition of E217betaG in the presence of Celecoxib at a concentration of 50uM in membrane vesicles from MRP4-expressing Sf9 cells; type: functional, cell membranes, Membrane vesicle; conditions: sf9, 50 µM
T2 sequence (O15439 whole entry): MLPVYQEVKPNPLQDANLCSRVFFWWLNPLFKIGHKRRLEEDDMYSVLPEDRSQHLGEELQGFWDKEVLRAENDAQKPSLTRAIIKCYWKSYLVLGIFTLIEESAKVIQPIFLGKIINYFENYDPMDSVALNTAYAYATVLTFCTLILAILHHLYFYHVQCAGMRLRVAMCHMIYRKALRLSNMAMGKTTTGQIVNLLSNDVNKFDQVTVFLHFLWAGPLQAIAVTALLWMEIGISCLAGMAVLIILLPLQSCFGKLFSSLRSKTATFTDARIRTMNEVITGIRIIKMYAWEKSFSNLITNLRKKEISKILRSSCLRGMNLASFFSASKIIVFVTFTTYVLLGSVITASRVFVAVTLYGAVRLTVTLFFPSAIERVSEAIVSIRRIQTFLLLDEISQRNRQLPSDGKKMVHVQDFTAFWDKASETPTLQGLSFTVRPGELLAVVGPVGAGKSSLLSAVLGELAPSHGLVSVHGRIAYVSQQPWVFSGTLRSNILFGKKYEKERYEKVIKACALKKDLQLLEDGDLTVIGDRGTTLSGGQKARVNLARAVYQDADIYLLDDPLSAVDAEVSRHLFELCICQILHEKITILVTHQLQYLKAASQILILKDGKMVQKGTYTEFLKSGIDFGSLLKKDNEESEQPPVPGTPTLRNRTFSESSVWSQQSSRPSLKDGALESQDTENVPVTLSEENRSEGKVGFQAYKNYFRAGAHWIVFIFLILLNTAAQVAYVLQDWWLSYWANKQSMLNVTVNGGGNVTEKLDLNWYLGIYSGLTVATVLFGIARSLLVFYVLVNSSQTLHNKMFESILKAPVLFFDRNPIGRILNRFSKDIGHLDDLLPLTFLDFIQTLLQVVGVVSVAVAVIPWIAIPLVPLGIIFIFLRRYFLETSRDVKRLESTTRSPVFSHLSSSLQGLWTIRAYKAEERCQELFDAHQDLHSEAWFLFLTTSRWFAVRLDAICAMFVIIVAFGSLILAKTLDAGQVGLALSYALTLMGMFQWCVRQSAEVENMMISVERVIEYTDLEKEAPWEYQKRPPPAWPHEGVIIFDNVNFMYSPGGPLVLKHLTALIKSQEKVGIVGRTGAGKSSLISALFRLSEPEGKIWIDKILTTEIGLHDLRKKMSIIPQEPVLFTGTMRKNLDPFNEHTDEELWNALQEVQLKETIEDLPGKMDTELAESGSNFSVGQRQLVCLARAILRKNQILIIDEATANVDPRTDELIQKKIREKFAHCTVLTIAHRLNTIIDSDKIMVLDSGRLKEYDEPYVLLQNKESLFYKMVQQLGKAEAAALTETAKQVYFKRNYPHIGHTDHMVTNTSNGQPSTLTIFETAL

[3] = molecular target: T3, MRP4 (ATP-binding cassette sub-family C member 4) (Homo sapiens, UniProt O15439); experiment: TP_TRANSPORTER: inhibition of E217betaG in the presence of Diclofenac at a concentration of 100uM in membrane vesicles from MRP4-expressing Sf9 cells; type: functional, cell membranes, Membrane vesicle; conditions: probe E217betaG, read-out: Activity
T3 sequence (O15439 whole entry): T2 sequence (O15439 whole entry)

[4] = molecular target: Multidrug resistance-associated protein 1 (Homo sapiens, UniProt P33527); experiment: TP_TRANSPORTER: inhibition of E217betaG in the presence of Diclofenac at a concentration of 100uM in membrane vesicles from MRP1-expressing Sf9 cells; type: functional, cell membranes, Membrane vesicle; conditions: sf9, 100 µM
[5] = molecular target: T1, MRP5 (ATP-binding cassette sub-family C member 5); experiment: TP_TRANSPORTER: inhibition of alaninyl-d4TMP by Prostaglandin E2 at a concentration of 20uM in membrane vesicle from MRP5-expressing HEK293 cells; type: functional, cell membranes; conditions: membrane vesicles from MRP5-expressing HEK293 cells, probe alaninyl-d4TMP, read-out: Activity
[6] = molecular target: T1, MRP5 (ATP-binding cassette sub-family C member 5); experiment: TP_TRANSPORTER: inhibition of alaninyl-d4TMP by Prostaglandin F2alpha at a concentration of 20uM in membrane vesicle from MRP5-expressing HEK293 cells; type: functional, cell membranes; conditions: membrane vesicles from MRP5-expressing HEK293 cells, probe alaninyl-d4TMP, read-out: Activity
[7] = molecular target: T2, ATP-binding cassette sub-family C member 4; experiment: TP_TRANSPORTER: inhibition of alaninyl-d4TMP in the presence of Prostaglandin F2alpha at a concentration of 20uM in membrane vesicles from MRP4-expressing Sf9 cells; type: functional, cell membranes, Membrane vesicle; conditions: sf9, 20 µM
[8] = molecular target: T2, ATP-binding cassette sub-family C member 4; experiment: TP_TRANSPORTER: inhibition of E217betaG in the presence of Flurbiprofen at a concentration of 50uM in membrane vesicles from MRP4-expressing Sf9 cells; type: functional, cell membranes, Membrane vesicle; conditions: sf9, 50 µM
[9] = molecular target: MRP1 (Multidrug resistance-associated protein 1) (Homo sapiens, UniProt P33527); experiment: TP_TRANSPORTER: inhibition of E217betaG in the presence of Ibuprofen at a concentration of 200uM in membrane vesicles from MRP1-expressing Sf9 cells; type: functional, cell membranes, Membrane vesicle; conditions: probe E217betaG, read-out: Activity
[10] = molecular target: T2, ATP-binding cassette sub-family C member 4; experiment: TP_TRANSPORTER: inhibition of E217betaG in the presence of Ibuprofen at a concentration of 200uM in membrane vesicles from MRP4-expressing Sf9 cells; type: functional, cell membranes, Membrane vesicle; conditions: sf9, 200 µM

T1 sequence (O15440 whole entry): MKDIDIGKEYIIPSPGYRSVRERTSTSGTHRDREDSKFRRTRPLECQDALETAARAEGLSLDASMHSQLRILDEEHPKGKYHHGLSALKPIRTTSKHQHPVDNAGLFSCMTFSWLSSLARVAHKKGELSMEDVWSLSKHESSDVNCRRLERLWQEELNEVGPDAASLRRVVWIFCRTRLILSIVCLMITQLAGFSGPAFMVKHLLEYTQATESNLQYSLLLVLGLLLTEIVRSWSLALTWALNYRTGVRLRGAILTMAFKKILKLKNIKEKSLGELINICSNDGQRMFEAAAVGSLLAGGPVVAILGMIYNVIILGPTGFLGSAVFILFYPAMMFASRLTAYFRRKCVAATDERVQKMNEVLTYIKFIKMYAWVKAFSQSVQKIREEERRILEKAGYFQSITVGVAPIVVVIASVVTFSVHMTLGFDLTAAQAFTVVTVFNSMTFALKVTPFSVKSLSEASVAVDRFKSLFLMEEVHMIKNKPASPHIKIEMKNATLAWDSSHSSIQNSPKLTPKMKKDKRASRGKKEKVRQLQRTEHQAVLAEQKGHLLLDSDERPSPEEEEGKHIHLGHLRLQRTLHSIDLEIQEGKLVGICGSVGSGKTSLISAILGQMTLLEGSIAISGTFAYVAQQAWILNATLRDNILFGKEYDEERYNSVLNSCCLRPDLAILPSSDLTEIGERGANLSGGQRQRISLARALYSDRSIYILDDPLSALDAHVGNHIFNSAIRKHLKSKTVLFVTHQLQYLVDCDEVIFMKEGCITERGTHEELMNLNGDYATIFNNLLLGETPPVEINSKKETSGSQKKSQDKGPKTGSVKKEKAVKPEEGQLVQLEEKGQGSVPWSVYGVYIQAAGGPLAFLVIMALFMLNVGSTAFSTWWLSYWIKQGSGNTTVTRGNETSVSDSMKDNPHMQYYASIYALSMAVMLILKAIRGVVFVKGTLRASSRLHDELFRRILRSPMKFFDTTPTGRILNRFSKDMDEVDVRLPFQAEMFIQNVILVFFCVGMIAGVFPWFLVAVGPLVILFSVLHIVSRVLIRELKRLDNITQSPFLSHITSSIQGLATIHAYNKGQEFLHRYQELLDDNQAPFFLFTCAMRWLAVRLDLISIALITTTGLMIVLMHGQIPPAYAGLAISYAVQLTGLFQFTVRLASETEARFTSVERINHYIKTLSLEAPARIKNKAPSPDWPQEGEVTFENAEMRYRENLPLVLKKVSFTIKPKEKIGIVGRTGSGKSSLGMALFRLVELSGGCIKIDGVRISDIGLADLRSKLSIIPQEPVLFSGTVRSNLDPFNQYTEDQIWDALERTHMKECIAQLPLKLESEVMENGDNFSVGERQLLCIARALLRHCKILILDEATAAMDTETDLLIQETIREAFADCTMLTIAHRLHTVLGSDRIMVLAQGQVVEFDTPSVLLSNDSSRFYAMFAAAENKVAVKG
Chain of MRP1 (Multidrug resistance-associated protein 1) (P33527 whole entry): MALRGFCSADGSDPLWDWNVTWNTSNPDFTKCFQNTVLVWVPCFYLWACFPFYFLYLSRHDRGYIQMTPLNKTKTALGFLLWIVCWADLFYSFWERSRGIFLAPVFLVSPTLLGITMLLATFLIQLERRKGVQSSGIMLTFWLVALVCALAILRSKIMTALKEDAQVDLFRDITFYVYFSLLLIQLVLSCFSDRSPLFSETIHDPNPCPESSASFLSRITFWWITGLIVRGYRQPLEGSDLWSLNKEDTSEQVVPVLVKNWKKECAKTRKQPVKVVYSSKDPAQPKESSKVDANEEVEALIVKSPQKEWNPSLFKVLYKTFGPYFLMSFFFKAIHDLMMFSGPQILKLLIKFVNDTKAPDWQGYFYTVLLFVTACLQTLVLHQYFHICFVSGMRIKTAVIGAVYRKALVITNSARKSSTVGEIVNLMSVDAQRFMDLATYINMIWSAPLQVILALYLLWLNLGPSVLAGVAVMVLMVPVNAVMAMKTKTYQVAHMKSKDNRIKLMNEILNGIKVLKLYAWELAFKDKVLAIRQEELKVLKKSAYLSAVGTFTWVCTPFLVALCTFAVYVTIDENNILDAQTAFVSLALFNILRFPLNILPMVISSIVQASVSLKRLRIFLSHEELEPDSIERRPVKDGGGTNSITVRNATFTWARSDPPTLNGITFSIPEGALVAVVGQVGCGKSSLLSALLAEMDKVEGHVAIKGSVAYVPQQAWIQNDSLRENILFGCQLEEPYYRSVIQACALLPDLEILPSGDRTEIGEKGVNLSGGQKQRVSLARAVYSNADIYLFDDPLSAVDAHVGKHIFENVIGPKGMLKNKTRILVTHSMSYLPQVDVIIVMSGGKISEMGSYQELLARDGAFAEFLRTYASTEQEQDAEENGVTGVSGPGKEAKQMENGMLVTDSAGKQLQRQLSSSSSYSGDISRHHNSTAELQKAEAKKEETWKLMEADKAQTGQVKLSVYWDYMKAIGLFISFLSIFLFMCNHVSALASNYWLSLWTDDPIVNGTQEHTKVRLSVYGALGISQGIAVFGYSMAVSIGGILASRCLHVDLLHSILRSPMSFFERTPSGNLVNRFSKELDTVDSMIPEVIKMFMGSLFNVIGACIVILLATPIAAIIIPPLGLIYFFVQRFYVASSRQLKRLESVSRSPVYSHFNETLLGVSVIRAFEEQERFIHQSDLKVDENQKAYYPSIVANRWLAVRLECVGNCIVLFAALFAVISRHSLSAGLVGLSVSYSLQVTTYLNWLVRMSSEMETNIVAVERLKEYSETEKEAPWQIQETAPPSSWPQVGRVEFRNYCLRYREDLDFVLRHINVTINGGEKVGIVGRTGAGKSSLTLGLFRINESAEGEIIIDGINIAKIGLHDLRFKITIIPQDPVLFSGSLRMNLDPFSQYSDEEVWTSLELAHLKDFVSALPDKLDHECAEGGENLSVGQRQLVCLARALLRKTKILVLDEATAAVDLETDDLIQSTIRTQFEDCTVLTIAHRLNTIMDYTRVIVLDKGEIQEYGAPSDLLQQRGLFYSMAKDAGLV
Chain of Multidrug resistance-associated protein 1 (P33527 whole entry): as above

CCCCC[C@H](O)/C=C/[C@H]1[C@H](O)CC(=O)[C@@H]1CCCCCCC(=O)O [ALPROSTADIL]
activity at 20 µM [1]: 69%

Cc1ccc(-c2cc(C(F)(F)F)nn2-c2ccc(S(N)(=O)=O)cc2)cc1 [CELECOXIB]
Activity [2]: 78%

O=C(O)Cc1ccccc1Nc1c(Cl)cccc1Cl [DICLOFENAC]
activity at 100 µM [3]: 61% | Activity [4]: 82%

CCCCC[C@H](O)/C=C/[C@H]1[C@H](O)CC(=O)[C@@H]1C/C=C\CCCC(=O)O [DINOPROSTONE]
activity at 20 µM [5]: 74%

CCCCC[C@H](O)/C=C/[C@@H]1[C@@H](C/C=C\CCCC(=O)O)[C@@H](O)C[C@H]1O [DINOPROST]
activity at 20 µM [6]: 63% | Activity [7]: 15%

CC(C(=O)O)c1ccc(-c2ccccc2)c(F)c1 (stereo not given) [FLURBIPROFEN]
Activity [8]: 23%

CC(C)Cc1ccc(C(C)C(=O)O)cc1 (stereo not given) [IBUPROFEN]
activity at 200 µM [9]: 79% | Activity [10]: 31%
